Results taken from patent US10842794B2, “Use of Sigma-1 receptor agonist compounds” (MTA TÁMOGATOTT KUTATÓCSOPORTOK IRODÁJA, priority 2014, dated 2020).

What was measured:
[1] = test system: Streptozotocin induced type 1 diabetic rats; assay: Diabetic rat kidney: Masson's trichrome staining, tubulointerstitial fibrosis; assay type: in vivo; conditions: rats treated with 20 mg fluvoxamine + NE-100 1 mg/bwkg/day
[2] = test system: Streptozotocin induced type 1 diabetic rats; assay: Diabetic rat kidney: fibronectin staining; assay type: in vivo; conditions: fluvoxamine 20 mg/bwkg/day + NE-100 1 mg/bwkg/day
[3] = test system: Streptozotocin induced type 1 diabetic rats; assay: Diabetic rat kidney: αSMA protein level, western blot; assay type: in vivo; conditions: diabetic rats, fluvoxamine + NE-100 1 mg/bwkg/day
[4] = test system: NRK49F rat kidney interstitial fibroblast cell lines; assay: PDGFB-induced myofibroblast proliferation (MTT); assay type: cell-based; conditions: for PDGF-induced myofibroblast proliferation: 10 ng/mL PDGFB, 24 hours, different concentrations of agonist
[5] = test system: mice with unilateral ureter obstruction (UUO); assay: Mice model of unilateral ureteral obstruction (UUO): Masson's trichrome, tubulointerstitial fibrosis; assay type: in vivo; conditions: fluvoxamine 20 mg/bwkg/day + NE-100 1 mg/bwkg/day for one week
[6] = test system: rat model of bleomycin-induced lung fibrosis; assay: Rat model of bleomycin induced pulmonary fibrosis: αSMA protein in lung, western blot; assay type: in vivo; conditions: fluvoxamine 20 mg/bwkg/day + NE-100 1 mg/bwkg/day for three weeks
Method: (Bars represent Mean±SEM, n=6/group).
(§1) For the induction of pulmonary fibrosis male Wistar rats were anesthetized. Bleomycin (5 mg/bwkg in a 300 μl solution of isotonic saline) or 300 μl isotonic saline was administered into the trachea using a 30G needle.
(§2) Animals were randomly divided into 4 groups of 6 rats each as follows (i)—control group was sham operated, received isotonic saline per os daily for 3 weeks, (ii) vehicle treated group: received isotonic saline per os daily for 3 weeks after the induction of lung fibrosis, (iii) fluvoxamine treated group: received fluvoxamine (20 mg/bwkg/day per os for 3 weeks after the induction of lung fibrosis), (iv) fluvoxamine+NE100 treated group: received fluvoxamine (20 mg/bwkg/day; per os) and 1 mg/bwkg/day NE100 (i.p. for 3 weeks after the induction of lung fibrosis. […]
Tissue samples were lysed in buffer containing leupeptin, aprotinin, Triton X-100, Tris-HCl, Ethylene glycol-bis (2-aminoethylether),N,N,N′,N′-tetraacetic-acid, NaF, Phenylmethylsulphonylfluoride and Na-orthovanadate (each substance were purchased from Sigma-Aldrich Co., St. Louis, Mo., USA) and centrifuged to pellet nuclei and large cellular fragments. Protein concentration of the supernatants was determined by Bradford assay (Bio-Rad Laboratories, Hercules, Calif., USA). […] Bands were analyzed with Quantity One software version 4.6.9. […]

[7] = test system: Streptozotocin induced type 1 diabetic rats; assay: Diabetic rat kidney: PAS staining, mesangial matrix expansion; assay type: in vivo; conditions: fluvoxamine 20 or 2 mg/bwkg/day + NE-100 1 mg/bwkg/day
NRK49F cells = assay: Cell viability MTT assay in myofibroblasts; assay type: cell-based, rat; conditions: 24-hours treatment, commonly used doses 1-10 μM
[8] = test system: rat model of bleomycin-induced lung fibrosis; assay: Rat model of bleomycin induced pulmonary fibrosis: Masson trichrome staining of lung; assay type: in vivo; conditions: fluvoxamine 20 mg/bwkg/day + NE-100 1 mg/bwkg/day for three weeks
Method: Masson trichrome staining of tissue sections was performed Bars represent Mean±SEM, n=6/group). Specifically:
as §1, §2
The stained sections were viewed and photographed with Pannoramic 250 Flash and Pannoramic Viewer 1.15.2 (3D HISTECH Ltd. Budapest, Hungary) Adobe Photoshop 13.0 and Scion Image for Windows software were used for the analysis. […] Finally these ratios were statistically analyzed in all of the treatment groups.

PCP receptors = conditions: cited from earlier work
S2R = S2R (Homo sapiens, UniProt Q5BJF2); conditions: read-out: Ki for σ2 receptors; cited from earlier work
Chain of S2R (Q5BJF2 whole entry, species assumed): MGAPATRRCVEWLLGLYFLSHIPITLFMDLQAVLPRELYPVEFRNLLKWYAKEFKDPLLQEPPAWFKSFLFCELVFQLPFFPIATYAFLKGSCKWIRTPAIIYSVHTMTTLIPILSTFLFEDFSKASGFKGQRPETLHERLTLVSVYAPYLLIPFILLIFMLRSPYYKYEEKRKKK

NRK49F myofibroblasts = conditions: all applied concentrations, even the smallest 1 μM
Method: In 6-well plates of NRK49F myofibroblasts (6×10^6 cells/well) TGF-β (1 nM) induced production of fibrillar components of the extracellular matrix was measured by Sirius Red staining. To investigate the effect of S1R agonist compounds a group of cells was treated for 48 hours with the various S1R agonists. Solvent treated cells served as controls. (Bars represent mean±SEM)
To investigate the deposition of fibrillar collagen Sirius Red staining was performed. 48 hours after the treatment with TGF-β and said compounds the NRK-49F cells were incubated for 10 minutes with Kahle fixative solution. 0.1% Sirius Red (Direct Red 80, Sigma-Aldrich) in 1.2% picric acid was added for each well and plates were incubated for 30 minutes at RT. The unconnected dye molecules were washed with distilled water. The bound Sirius Red dye was eluated with 0.1 M NaOH solution, absorbance was recorded at 540 nm in a Hidex Chameleon Microplate Reader (Triathler, Plate Chameleion, 300SL Lablogic Systems, Inc., Brandon, Fla., USA) used MikroWin program. Vehicle treated cells served as controls.

[9] = test system: Japanese patients with IPF; conditions: 1,800 mg/day, 107 Japanese patients with IPF; cited from earlier work
[10] = test system: post-AMI left ventricular remodeling / infarct expansion; conditions: cited from earlier work

SMILES: CCCN(CCC)CCc1ccc(OC)c(OCCc2ccccc2)c1.Cl [NE-100, 4-Methoxy-3-(2-phenylethoxy)-N,N-dipropylbenzeneethanamine hydrochloride]
- effect of NE-100 co-administration on protective effect of fluvoxamine (tubulointerstitial fibrosis) [1]: inhibited the protective effect of fluvoxamine
- effect of NE-100 on fluvoxamine's effect on fibronectin accumulation [2]: suspended this beneficial effect
- effect of NE-100 co-administration on fluvoxamine's effect on αSMA protein level [3]: suspended
- effect of NE-100 co-incubation on anti-proliferative effect of fluvoxamine ([4]; NE-100 3 μM with fluvoxamine 10 μM, PDGF-induced): suspended the effect of fluvoxamine
- effect of NE-100 on fluvoxamine's effect on tubulointerstitial fibrosis after UUO [5]: suspended the beneficial effect of fluvoxamine
- effect of NE-100 on fluvoxamine's effect on lung αSMA [6]: suspended the beneficial effect of fluvoxamine
- effect of NE-100 co-administration on renoprotection of fluvoxamine (mesangial matrix expansion) [7]: prohibited the renoprotection of fluvoxamine
- cytotoxicity / cell viability in myofibroblasts (NRK49F cells): not cytotoxic
- effect of NE-100 on fluvoxamine's effect on lung fibrosis [8]: suspended the effect of fluvoxamine

SMILES: O=C(OCCN1CCOCC1)C1(c2ccccc2)CCCCC1 [PRE-084, 2-morpholin-4-ylethyl 1-phenylcyclohexane-1-carboxylate]
- IC50 (PCP receptors): > 100 µM
- Ki (S2R): 13.1 µM
- PDGF-induced myofibroblast proliferation [4]: significantly decreased PDGF-induced myofibroblast proliferation
- TGFβ-induced ECM production (Sirius Red) (NRK49F myofibroblasts): significantly inhibited TGFβ-induced ECM production
- cytotoxicity / cell viability in myofibroblasts (NRK49F cells): not cytotoxic

SMILES: COc1ccc(CCN2CCN(CCCc3ccccc3)CC2)cc1OC [SA-4503, 1-[2-(3,4-Dimethoxyphenyl)ethyl]-4-(3-phenylpropyl)piperazine]
- PDGF-induced myofibroblast proliferation [4]: significantly decreased PDGF-induced myofibroblast proliferation
- TGFβ-induced ECM production (Sirius Red) (NRK49F myofibroblasts): significantly inhibited TGFβ-induced ECM production
- cytotoxicity / cell viability in myofibroblasts (NRK49F cells): not cytotoxic

SMILES: Cc1ccc(=O)n(-c2ccccc2)c1 [pirfenidone, 5-Methyl-1-phenylpyridin-2-one]
- primary end point, pirfenidone versus placebo [9]: not significantly different between the two groups

SMILES: COc1ccc(/C=C/C(=O)Nc2ccccc2C(=O)O)cc1OC [tranilast, 2-{[(2E)-3-(3,4-dimethoxyphenyl)prop-2-enoyl]amino}benzoic acid]
- left ventricular remodeling ([10]; commencement of treatment delayed to 7 days post-AMI): impeded left ventricular remodeling
- infarct expansion ([10]; intervention from 24h post-AMI): exacerbated infarct expansion
